Measured values: patent US5607937A, “Piperazides of substituted phenylalanine derivatives as thrombin inhibitors” (priority 1993, dated 1997)
Like-named read-outs stand apart in the source and are kept apart here. Each block holds one compound with its values, some of them ahead of it.

Columns and labels:
[1] = plasma concentration in rats after intravenous administration; format: in vivo; settings: rat; for concentration at 0.25 h: 15 min; for concentration at 0.5 h: 30 min; for concentration at 1 h: 60 min; for elimination in words: i.v.
Procedure: (§3) A physiological NaCl solution of the substance to be tested was submitted to high pressure liquid chromatography (HPLC) in order to determine its characteristic substance-specific retention time with the chosen test conditions.
(§4) The substance to be tested was diluted in vitro in rat plasma. This solution was also submitted to HPLC to see whether the characteristic peak of the substance once again appeared at the substance-specific retention time.
(§5) Blood samples were taken at time intervals of 15 minutes, from which plasma samples were prepared by centrifugation; those samples were also submitted to HPLC to see whether the characteristic peak of the substance appeared again at the substance-specific retention time.
(§6) After administration, blood samples were taken from the test animals at time intervals from 2 to maximally 360 minutes and the blood level of the compounds to be tested was determined by HPLC.

[2] = plasma concentration in rats after oral administration; format: in vivo; settings: rat; for resorption in words: oral
Procedure: as §3, §4, §5, §6

[3] = plasma concentration in rats after rectal administration; format: in vivo; settings: rat; for concentration at 0.5 h / concentration at 1 h / concentration at 2 h / concentration at 3 h / concentration at 4 h / concentration at 5 h / concentration at 6 h: plasma; for concentration at 0.5 h: 30 min; for concentration at 1 h: 60 min; for concentration at 2 h: 120 min; for concentration at 3 h: 180 min; for concentration at 4 h: 240 min; for concentration at 5 h: 300 min; for concentration at 6 h: 360 min
thrombin = thrombin (Bos taurus, UniProt P00735); experiment: biochemical
[4] = system: coagulation in human plasma; experiment: thrombin time (TT) in human plasma
tPA = tPA (Homo sapiens, UniProt P00750); experiment: inhibition of tPA, dissociation constant Ki
[5] = system: coagulation in human plasma; experiment: prothrombin time (PT, Quick value) in human plasma
factor XIIa = target: T1, factor XIIa (Homo sapiens, UniProt P00748); experiment: inhibition of factor XIIa, dissociation constant Ki
T1 sequence (P00748 373-615 limits assumed): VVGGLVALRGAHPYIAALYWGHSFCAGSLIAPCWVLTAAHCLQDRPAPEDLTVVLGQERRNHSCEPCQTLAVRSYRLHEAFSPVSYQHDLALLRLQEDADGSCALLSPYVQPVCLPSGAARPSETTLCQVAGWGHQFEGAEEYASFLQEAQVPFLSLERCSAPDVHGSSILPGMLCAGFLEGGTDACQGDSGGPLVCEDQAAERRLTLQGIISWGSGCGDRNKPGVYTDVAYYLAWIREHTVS

plasma kallikrein = plasma kallikrein (Homo sapiens, UniProt P03952); experiment: inhibition of plasma kallikrein, dissociation constant Ki
glandular kallikrein = glandular kallikrein (Sus scrofa, UniProt P00752); experiment: inhibition of glandular kallikrein, dissociation constant Ki
[6] = system: coagulation in human plasma; experiment: activated partial thromboplastin time (aPTT) in human plasma
in vivo = settings: rat
[7] = system: coagulation in rat plasma; experiment: thrombin time in rat plasma after rectal application; format: in vivo; settings: rectal 5 mg/kg
Procedure: (§1) After rectal administration of the compounds to be tested, the anticoagulant effect was determined in the plasma of experimental animals.

[8] = system: coagulation in rat plasma; experiment: aPTT in rat plasma after rectal application; format: in vivo; settings: rectal 5 mg/kg
Procedure: as §1

[9] = concentration in rat plasma in the anticoagulant study after rectal application; format: in vivo; settings: rectal 5 mg/kg; for concentration at 0.5 h / concentration at 1 h / concentration at 2 h / concentration at 3 h: plasma; for concentration at 0.5 h: 30 min; for concentration at 1 h: 60 min; for concentration at 2 h: 120 min; for concentration at 3 h: 180 min; for Concentration in plasma: 0 min
trypsin = target: T2, trypsin (Bos taurus, UniProt P00760); experiment: inhibition of trypsin, dissociation constant Ki; format: biochemical; parameters: thrombin and the related enzymes trypsin, plasmin, factor Xa, factor XIIa; settings: Table 1; read-out: Ki, Trypsin
T2 sequence (P00760 24-246): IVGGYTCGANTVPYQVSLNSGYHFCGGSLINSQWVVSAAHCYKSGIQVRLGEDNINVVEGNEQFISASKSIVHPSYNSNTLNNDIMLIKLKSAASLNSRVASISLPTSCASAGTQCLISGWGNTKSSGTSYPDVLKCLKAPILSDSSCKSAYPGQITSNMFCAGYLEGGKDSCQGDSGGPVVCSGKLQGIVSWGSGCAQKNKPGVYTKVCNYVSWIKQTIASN
Procedure: (§2) The biological activity of the compounds of the present invention was determined in vitro as well as in vivo.

factor Xa = factor Xa (Bos taurus, UniProt P00743); experiment: inhibition of factor Xa, dissociation constant Ki; format: biochemical; settings: Table 1
Procedure: as §2

[10] = plasma, intraduodenal 100 mg/kg, 30 min

plasma kallikrein, sequence (P03952 391-638 limits assumed, species assumed): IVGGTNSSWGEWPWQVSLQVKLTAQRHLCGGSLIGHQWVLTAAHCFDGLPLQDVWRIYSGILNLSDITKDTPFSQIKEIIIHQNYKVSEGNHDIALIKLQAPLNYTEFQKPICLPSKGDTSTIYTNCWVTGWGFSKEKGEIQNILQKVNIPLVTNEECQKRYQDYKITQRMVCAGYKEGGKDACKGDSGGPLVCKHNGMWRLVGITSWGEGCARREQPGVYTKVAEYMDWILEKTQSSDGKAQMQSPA
plasma kallikrein, sequence (P03952 20-390 partner limits assumed, species assumed): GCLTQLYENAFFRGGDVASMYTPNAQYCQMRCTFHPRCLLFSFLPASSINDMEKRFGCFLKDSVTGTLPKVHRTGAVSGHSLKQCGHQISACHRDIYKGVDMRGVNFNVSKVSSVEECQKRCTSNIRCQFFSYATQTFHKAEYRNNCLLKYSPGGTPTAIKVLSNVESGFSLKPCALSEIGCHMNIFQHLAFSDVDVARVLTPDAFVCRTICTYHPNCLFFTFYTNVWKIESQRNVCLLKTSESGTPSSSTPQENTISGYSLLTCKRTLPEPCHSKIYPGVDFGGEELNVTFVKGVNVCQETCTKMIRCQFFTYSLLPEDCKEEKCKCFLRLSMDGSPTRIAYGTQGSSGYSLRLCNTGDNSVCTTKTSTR
tPA, sequence (P00750 36-562): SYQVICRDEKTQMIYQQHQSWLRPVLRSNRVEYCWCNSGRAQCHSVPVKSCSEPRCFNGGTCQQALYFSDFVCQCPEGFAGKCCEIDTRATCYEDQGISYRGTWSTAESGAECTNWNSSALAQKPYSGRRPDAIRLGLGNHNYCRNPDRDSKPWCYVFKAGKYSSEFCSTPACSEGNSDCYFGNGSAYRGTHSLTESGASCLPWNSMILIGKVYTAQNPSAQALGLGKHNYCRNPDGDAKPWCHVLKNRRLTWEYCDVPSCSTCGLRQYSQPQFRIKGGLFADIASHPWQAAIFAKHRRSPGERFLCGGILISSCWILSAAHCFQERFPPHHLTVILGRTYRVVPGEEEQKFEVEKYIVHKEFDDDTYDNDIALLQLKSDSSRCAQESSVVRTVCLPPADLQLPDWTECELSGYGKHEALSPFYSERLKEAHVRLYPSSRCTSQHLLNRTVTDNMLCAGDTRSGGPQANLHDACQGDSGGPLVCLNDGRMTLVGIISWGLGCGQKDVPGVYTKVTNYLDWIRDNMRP
glandular kallikrein, sequence (P00752 8-246): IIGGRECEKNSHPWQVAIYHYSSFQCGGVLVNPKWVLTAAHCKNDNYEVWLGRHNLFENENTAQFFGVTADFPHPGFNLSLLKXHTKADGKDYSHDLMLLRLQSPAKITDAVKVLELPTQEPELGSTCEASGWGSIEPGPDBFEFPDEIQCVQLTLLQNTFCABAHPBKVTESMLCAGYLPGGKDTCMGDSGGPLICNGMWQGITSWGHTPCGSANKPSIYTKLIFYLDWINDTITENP
factor Xa, sequence (P00743 234-492 limits assumed): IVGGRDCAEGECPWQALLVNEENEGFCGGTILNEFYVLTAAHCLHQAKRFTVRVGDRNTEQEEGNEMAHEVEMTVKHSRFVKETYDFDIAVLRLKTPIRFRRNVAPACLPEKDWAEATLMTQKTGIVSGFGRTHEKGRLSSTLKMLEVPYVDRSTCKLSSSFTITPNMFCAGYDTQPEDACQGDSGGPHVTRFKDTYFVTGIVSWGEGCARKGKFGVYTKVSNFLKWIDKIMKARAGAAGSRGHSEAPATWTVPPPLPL
factor Xa, sequence (P00743 41-180 partner limits assumed): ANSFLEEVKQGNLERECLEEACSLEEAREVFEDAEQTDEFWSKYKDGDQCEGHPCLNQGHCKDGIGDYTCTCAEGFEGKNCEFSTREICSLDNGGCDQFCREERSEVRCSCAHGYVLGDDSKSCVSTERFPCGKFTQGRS

concentration at 5 min ([1]; plasma, iv, i.v. 1 mg/kg): 812 ng/mL
concentration at 0.25 h ([1]; plasma, iv, i.v. 1 mg/kg): 169 ng/mL
concentration at 0.5 h ([1]; plasma, iv, i.v. 1 mg/kg): 40 ng/mL
concentration at 1 h ([1]; plasma, iv, i.v. 1 mg/kg): 8 ng/mL
Concentration in plasma ([1]; i.v. 1 mg/kg, 120 min): 0 ng/mL
Concentration in plasma ([1]; i.v. 1 mg/kg, 180 min): 0 ng/mL
concentration at 0.5 h ([2]; plasma, oral 50 mg/kg, 30 min): 33 ng/mL
concentration at 1 h ([2]; plasma, oral 50 mg/kg, 60 min): 10 ng/mL
Concentration in plasma ([2]; oral 50 mg/kg, 120 min): 0 ng/mL
Concentration in plasma ([2]; oral 50 mg/kg, 180 min): 0 ng/mL
Concentration in plasma ([2]; oral 50 mg/kg, 240 min): 0 ng/mL
Concentration in plasma ([2]; oral 50 mg/kg, 300 min): 0 ng/mL
concentration at 0.5 h ([3]; rectal 100 mg/kg): 3260 ng/mL
concentration at 1 h ([3]; rectal 100 mg/kg): 2370 ng/mL
concentration at 2 h ([3]; rectal 100 mg/kg): 1800 ng/mL
concentration at 3 h ([3]; rectal 100 mg/kg): 898 ng/mL
concentration at 4 h ([3]; rectal 100 mg/kg): 626 ng/mL
concentration at 5 h ([3]; rectal 100 mg/kg): 592 ng/mL
concentration at 6 h ([3]; rectal 100 mg/kg): 448 ng/mL
Ki (thrombin): 0.67 µM
Ki (tPA): 370 µM
Ki (factor XIIa): 210 µM
Ki (plasma kallikrein): 30 µM
Ki (glandular kallikrein): > 1000 µM
SMILES: CCOC(=O)N1CCN(C(=O)C(Cc2cccc(C(=N)N)c2)NS(=O)(=O)c2ccc3ccccc3c2)CC1 (racemic) [X, N-α-(2-naphthylsulfonyl)-(D,L)-3-amidinophenylalanine-4-ethoxycarbonyl piperazide, reference compound]
Concentr. to double the Thrombin time [4]: 4.1 µmol/L
Concentr. to double the Prothrombin time [5]: 45 µmol/L
Concentr. to double the aPTT [6]: 20 µmol/L

concentration at 5 min ([1]; plasma, iv, i.v. 1 mg/kg): 2210 ng/mL
concentration at 0.25 h ([1]; plasma, iv, i.v. 1 mg/kg): 145 ng/mL
concentration at 0.5 h ([1]; plasma, iv, i.v. 1 mg/kg): 313 ng/mL
concentration at 1 h ([1]; plasma, iv, i.v. 1 mg/kg): 112 ng/mL
elimination in words [1]: eliminated at comparable rate
Concentration in plasma ([1]; i.v. 1 mg/kg, 120 min): 0 ng/mL
Concentration in plasma ([1]; i.v. 1 mg/kg, 180 min): 0 ng/mL
resorption in words [2]: only slightly resorbed
concentration at 0.5 h ([3]; rectal 20 mg/kg): 7260 ng/mL
concentration at 1 h ([3]; rectal 20 mg/kg): 3800 ng/mL
concentration at 2 h ([3]; rectal 20 mg/kg): 1740 ng/mL
concentration at 3 h ([3]; rectal 20 mg/kg): 814 ng/mL
concentration at 4 h ([3]; rectal 20 mg/kg): 215 ng/mL
concentration at 5 h ([3]; rectal 20 mg/kg): 61 ng/mL
concentration at 6 h ([3]; rectal 20 mg/kg): 34 ng/mL
detectable in plasma after rectal administration ([3]; rectal): ≥ 6 h
concentration at 0.5 h (in vivo; [10]): 3820 ng/mL
Concentration in plasma (in vivo; in vivo, other, 100 mg/kg, 120 min): 361 ng/mL
Concentration in plasma (in vivo; intraduodenal 100 mg/kg, 30 min, dihydrochloride, 100 mg/kg): 2262 ng/mL
Concentration in plasma (in vivo; intraduodenal 100 mg/kg, 60 min, dihydrochloride, 100 mg/kg): 2172 ng/mL
Concentration in plasma (in vivo; intraduodenal 100 mg/kg, 60 min, listed as 3*, dihydrochloride, 100 mg/kg): 795 ng/mL
Concentration in plasma (in vivo; intraduodenal 100 mg/kg, 120 min): 1457 ng/mL
Concentration in plasma (in vivo; intraduodenal 100 mg/kg, 180 min, dihydrochloride, 100 mg/kg): 945 ng/mL
Concentration in plasma (in vivo; intraduodenal 100 mg/kg, 180 min, listed as 3*, dihydrochloride, 100 mg/kg): 228 ng/mL
Concentration in plasma (in vivo; intraduodenal 100 mg/kg, 240 min, dihydrochloride, 100 mg/kg): 1277 ng/mL
Concentration in plasma (in vivo; intraduodenal 100 mg/kg, 240 min, listed as 3*, dihydrochloride, 100 mg/kg): 144 ng/mL
Concentration in plasma (in vivo; intraduodenal 100 mg/kg, 300 min, dihydrochloride, 100 mg/kg): 1400 ng/mL
Concentration in plasma (in vivo; intraduodenal 100 mg/kg, 300 min, listed as 3*, dihydrochloride, 100 mg/kg): 276 ng/mL
concentration at 0.5 h [9]: 897 ng/mL
concentration at 1 h [9]: 462 ng/mL
concentration at 2 h [9]: 355 ng/mL
concentration at 3 h [9]: 49 ng/mL
Concentration in plasma [9]: 0 ng/mL
Ki (thrombin): 0.036 µM
Ki (tPA): 190 µM
Ki (factor XIIa; Ki, Factor XIIa, Table 1): 320 µM
Ki (plasma kallikrein): 25 µM
Ki (glandular kallikrein): > 1000 µM
Ki (trypsin): 0.6 µM
SMILES: Cl.Cl.N=C(N)c1cccc(C[C@H](NS(=O)(=O)c2ccc3ccccc3c2)C(=O)N2CCN(CCO)CC2)c1 [Compound 3, Nα-(2-naphthylsulfonyl)-3-amidino-(L)-phenylalanine-4-(2-hydroxyethyl) -piperazide dihydrochloride]
Clotting time, Thrombin time ([7]; 0 min): 45 s
Clotting time, Thrombin time ([7]; 30 min): 300 s
Clotting time, Thrombin time ([7]; 60 min): 298 s
Clotting time, Thrombin time ([7]; 120 min): 165 s
Clotting time, Thrombin time ([7]; 180 min): 114 s
Clotting time, aPTT ([8]; 0 min): 23.5 s
Clotting time, aPTT ([8]; 30 min): 39.8 s
Clotting time, aPTT ([8]; 60 min): 32.8 s
Clotting time, aPTT ([8]; 120 min): 27.4 s
Clotting time, aPTT ([8]; 180 min): 26.0 s
Concentr. to double the Thrombin time [4]: 0.14 µmol/L
Concentr. to double the Prothrombin time [5]: 1.3 µmol/L
Concentr. to double the aPTT [6]: 0.65 µmol/L

SMILES: CN(C)C(=O)N1CCN(C(=O)[C@H](Cc2cccc(C(=N)N)c2)NS(=O)(=O)c2ccc3ccccc3c2)CC1 [Compound 6]
Ki (factor Xa): 15 µM
concentration at 5 min ([1]; plasma, iv, i.v. 1 mg/kg): 823 ng/mL
concentration at 0.25 h ([1]; plasma, iv, i.v. 1 mg/kg): 289 ng/mL
concentration at 0.5 h ([1]; plasma, iv, i.v. 1 mg/kg): 194 ng/mL
concentration at 1 h ([1]; plasma, iv, i.v. 1 mg/kg): 141 ng/mL
concentration at 2 h ([1]; plasma, iv, i.v. 1 mg/kg, 120 min): 86 ng/mL
concentration at 3 h ([1]; plasma, iv, i.v. 1 mg/kg, 180 min): 70 ng/mL
elimination in words [1]: eliminated at comparable rate
resorption in words [2]: only slightly resorbed
concentration at 0.5 h ([3]; rectal 20 mg/kg): 1180 ng/mL
concentration at 1 h ([3]; rectal 20 mg/kg): 449 ng/mL
concentration at 2 h ([3]; rectal 20 mg/kg): 850 ng/mL
concentration at 3 h ([3]; rectal 20 mg/kg): 272 ng/mL
concentration at 4 h ([3]; rectal 20 mg/kg): 46 ng/mL
concentration at 0.5 h (in vivo; [10]): 20500 ng/mL
concentration at 1 h (in vivo; plasma, intraduodenal 100 mg/kg, 60 min): 6500 ng/mL
concentration at 2 h (in vivo; plasma, intraduodenal 100 mg/kg, 120 min): 3280 ng/mL
concentration at 3 h (in vivo; plasma, intraduodenal 100 mg/kg, 180 min): 2060 ng/mL
concentration at 4 h (in vivo; plasma, intraduodenal 100 mg/kg, 240 min): 1500 ng/mL
concentration at 5 h (in vivo; plasma, intraduodenal 100 mg/kg, 300 min): 1200 ng/mL
concentration at 6 h (in vivo; plasma, intraduodenal 100 mg/kg, 360 min): 1440 ng/mL
Clotting time, Thrombin time ([7]; 0 min): 55.3 s
Clotting time, Thrombin time ([7]; 30 min): > 300 s
Clotting time, Thrombin time ([7]; 60 min): > 300 s
Clotting time, Thrombin time ([7]; 120 min): > 300 s
Clotting time, Thrombin time ([7]; 180 min): 213 s
Clotting time, aPTT ([8]; 0 min): 22.3 s
Clotting time, aPTT ([8]; 30 min): 34.5 s
Clotting time, aPTT ([8]; 60 min): 31.5 s
Clotting time, aPTT ([8]; 120 min): 28.4 s
Clotting time, aPTT ([8]; 180 min): 26 s
concentration at 0.5 h [9]: 648 ng/mL
concentration at 1 h [9]: 362 ng/mL
concentration at 2 h [9]: 157 ng/mL
concentration at 3 h [9]: 83 ng/mL
Concentration in plasma [9]: 0 ng/mL
Ki (thrombin): 0.004 µM
Concentr. to double the Thrombin time [4]: 0.042 µmol/L
concentration to double the TT [4]: less than 10^-7 mol/1
Ki (tPA): > 1000 µM
Concentr. to double the Prothrombin time [5]: 0.65 µmol/L
concentration to double the PT [5]: ≤ 1 μmol/1
Ki (factor XIIa; Ki, Factor XIIa, Table 1): 51 µM
Ki (plasma kallikrein; Ki, Plasma kallikr., Table 1): 7.3 µM
Ki (glandular kallikrein): > 1000 µM
Concentr. to double the aPTT [6]: 0.3 µmol/L
concentration to double the aPTT [6]: ≤ 1 μmol/1
Ki (trypsin): 0.097 µM
